# In patent US11737999B2, “Amino acid compositions and methods for the treatment of post-acute sequelae of COVID-19” (AXCELLA HEALTH INC., priority 2021, dated 2023):
# Columns and labels:
# MCP1/CCL2 = MCP1/CCL2 secretion by ELISA in primary human hepatocytes with FFA + TNFα; type: cell-based; details: for MCP1/CCL2 secretion (summary in words): primary human hepatocytes, two healthy donors
# MCP-1 = MCP-1 chemokine secretion in primary human hepatic stellate cells stimulated with TNFα; type: cell-based; details: for Fold Change MCP1 Secretion Normalized Per Cell, Mean: donor 3; for Fold Change MCP1 Secretion Normalized Per Cell: donor 4
# IL-6 [1] = assay: IL-6 cytokine secretion in primary human hepatic stellate cells stimulated with TNFα; type: cell-based; details: for IL-6 secretion (summary in words): hepatic stellate cells, two donors
# Col1a1 = Col1a1 gene expression (RT-qPCR) in primary human hepatic stellate cells stimulated with TGFβ1; type: cell-based; details: for Col1a1 Fold Expression Relative to Control, Mean: single amino acid; for Col1a1 gene expression (summary in words): hepatic stellate cells, three donors
# Procollagen Iα1 = Procollagen Iα1 secretion (ELISA) in primary human hepatic stellate cells stimulated with TGFβ1; type: cell-based; details: for Procollagen lα1 Secretion (Fold Change of 1X), Mean: first donor; for Procollagen lα1 Secretion (Fold Change of 1X), Mean / Procollagen Iα1 Secretion, Mean: single amino acid; for procollagen Iα1 secretion (summary in words): hepatic stellate cells, three donors
# IL-6 [2] = assay: LPS-induced IL-6 secretion in primary human monocyte-derived macrophages; details: for IL-6 Measurements, Mean: LPS, baseline subtracted values
# TNF-α = assay: LPS-induced TNF-α secretion in primary human monocyte-derived macrophages; details: for TNF-α Measurements Mean (baseline subtracted): 0.15 ng/mL LPS
# [3] = Donor 2, Conc. 234 μM (baseline)
# [4] = Donor 1, Conc. 66 μM (baseline)
structure (smiles),measurement,setting,value
"CC(C)[C@H](N)C(=O)O [Valine, L-Valine]","MCP1 expression relative to Control, Mean","MCP1/CCL2; Donor 1, Conc. 234 μM",−2.4E−15
same,"MCP1 expression relative to Control, Mean","MCP1/CCL2; Donor 1, Conc. 4684 μM",23.6867
same,"MCP1 expression relative to Control, Mean","MCP1/CCL2; Donor 1, Conc. 11710 μM",77.73
same,"MCP1 expression relative to Control, Mean","MCP1/CCL2; Donor 1, Conc. 23420 μM",14.17
same,"MCP1 expression relative to Control, Mean","MCP1/CCL2; Donor 2, Conc. 234 μM",−1.4E−14
same,"MCP1 expression relative to Control, Mean","MCP1/CCL2; Donor 2, Conc. 4684 μM",10.79
same,"MCP1 expression relative to Control, Mean","MCP1/CCL2; Donor 2, Conc. 11710 μM",38.25
same,"MCP1 expression relative to Control, Mean","MCP1/CCL2; Donor 2, Conc. 23420 μM",−30.7921
same,MCP1/CCL2 secretion (summary in words),MCP1/CCL2,did not have an effect on MCP1/CCL2 secretion
same,"Fold Change MCP1 Secretion Normalized Per Cell, Mean",MCP-1; Conc. 234 μM,1.0000 Fold Change
same,Fold Change MCP1 Secretion Normalized Per Cell,"MCP-1; Valine 234 μM (plasma level, reference)",1.0000 fold change
same,MCP-1 secretion (summary in words),"MCP-1; hepatic stellate cells, two donors",no significant impact on MCP-1 secretion
same,Fold Change IL-6 Secretion Normalized Per Cell,"IL-6 [1]; donor 1, Valine 234 μM (plasma level, reference)",1.0000 fold change
same,Fold Change IL-6 Secretion Normalized Per Cell,"IL-6 [1]; donor 2, Valine 234 μM (plasma level, reference)",1.0000 fold change
same,IL-6 secretion (summary in words),IL-6 [1],no significant effect on IL-6 secretion
same,"Col1a1 Fold Expression Relative to Control, Mean","Col1a1; first donor, 234 μM (baseline)",1.00 fold
same,"Col1a1 Fold Expression Relative to Control, Mean","Col1a1; first donor, 23420 μM",1.00 fold
same,Col1a1 gene expression (summary in words),Col1a1,did not significantly change Col1a1 gene expression in any donor
same,"Col1a1 Fold Expression Relative to Control, Mean","Col1a1; second donor (Table 27), 234 μM (baseline)",1.00 fold
same,"Col1a1 Fold Expression Relative to Control, Mean","Col1a1; second donor (Table 27), 4684 μM",1.05 fold
same,"Col1a1 Fold Expression Relative to Control, Mean","Col1a1; second donor (Table 27), 11710 μM",0.98 fold
same,"Col1a1 Fold Expression Relative to Control, Mean","Col1a1; second donor (Table 27), 23420 μM",1.05 fold
same,"Col1a1 Fold Expression Relative to Control, Mean","Col1a1; second donor (Table 29), 4684 μM",1.22 fold
same,"Col1a1 Fold Expression Relative to Control, Mean","Col1a1; second donor (Table 29), 23420 μM",1.13 fold
same,"Procollagen lα1 Secretion (Fold Change of 1X), Mean",Procollagen Iα1; 4684 μM,1.1203 fold
same,"Procollagen lα1 Secretion (Fold Change of 1X), Mean",Procollagen Iα1; 11710 μM,1.2069 fold
same,"Procollagen lα1 Secretion (Fold Change of 1X), Mean",Procollagen Iα1; 23420 μM,1.2139 fold
same,procollagen Iα1 secretion (summary in words),Procollagen Iα1,significantly increased procollagen Iα1 secretion in only one of two donors
same,"Procollagen Iα1 Secretion, Mean","Procollagen Iα1; second donor, Conc. 234 μM (baseline)",1.0000 Fold Change of 1×
same,"Procollagen Iα1 Secretion, Mean","Procollagen Iα1; second donor, Conc. 4684 μM",1.2865 Fold Change of 1×
same,"Procollagen Iα1 Secretion, Mean","Procollagen Iα1; second donor, Conc. 11710 μM",1.2877 Fold Change of 1×
same,"Procollagen Iα1 Secretion, Mean","Procollagen Iα1; second donor, Conc. 23420 μM",1.3068 Fold Change of 1×
same,"Procollagen Iα1 Secretion, Mean","Procollagen Iα1; third donor, Conc. 234 μM (baseline)",1.0000 Fold Change of 1×
same,"Procollagen Iα1 Secretion, Mean","Procollagen Iα1; third donor, Conc. 4684 μM",1.0428 Fold Change of 1×
same,"Procollagen Iα1 Secretion, Mean","Procollagen Iα1; third donor, Conc. 11710 μM",1.0498 Fold Change of 1×
same,"Procollagen Iα1 Secretion, Mean","Procollagen Iα1; third donor, Conc. 23420 μM",1.1139 Fold Change of 1×
same,"IL-6 Measurements, Mean","IL-6 [2]; Donor 1, Conc. 234 μM (baseline)",0
same,"IL-6 Measurements, Mean",IL-6 [2]; [3],−4.7E−15
same,"IL-6 Measurements, Mean","IL-6 [2]; Donor 2, Conc. 4684 μM",−4.528
same,"IL-6 Measurements, Mean","IL-6 [2]; Donor 2, Conc. 11710 μM",−1.196
same,"IL-6 Measurements, Mean","IL-6 [2]; Donor 2, Conc. 23420 μM",4.396
same,TNF-α Measurements Mean (baseline subtracted),"TNF-α; Donor 1, Conc. 4684 μM",−40.37
same,TNF-α Measurements Mean (baseline subtracted),"TNF-α; Donor 1, Conc. 11710 μM",−41.77
same,TNF-α Measurements Mean (baseline subtracted),"TNF-α; Donor 1, Conc. 23420 μM",−14.98
same,TNF-α Measurements Mean (baseline subtracted),TNF-α; [3],−4.7E−15
same,TNF-α Measurements Mean (baseline subtracted),"TNF-α; Donor 2, Conc. 4684 μM",−0.00221
same,TNF-α Measurements Mean (baseline subtracted),"TNF-α; Donor 2, Conc. 11710 μM",−0.835
same,TNF-α Measurements Mean (baseline subtracted),"TNF-α; Donor 2, Conc. 23420 μM",−1.251
same,TNF-α Measurements Mean (baseline subtracted),"TNF-α; Donor 3, Conc. 234 μM (baseline)",−2.4E−15
same,TNF-α Measurements Mean (baseline subtracted),"TNF-α; Donor 3, Conc. 4684 μM",0.126
same,TNF-α Measurements Mean (baseline subtracted),"TNF-α; Donor 3, Conc. 11710 μM",−2.599
same,TNF-α Measurements Mean (baseline subtracted),"TNF-α; Donor 3, Conc. 23420 μM",3.688
"CC[C@H](C)[C@H](N)C(=O)O [Isoleucine, L-Isoleucine]","MCP1 expression relative to Control, Mean","MCP1/CCL2; Donor 1, Conc. 66 μM",−1.2E−15
same,"MCP1 expression relative to Control, Mean","MCP1/CCL2; Donor 1, Conc. 1328 μM",−0.3073
same,"MCP1 expression relative to Control, Mean","MCP1/CCL2; Donor 1, Conc. 3320 μM",−2.417
same,"MCP1 expression relative to Control, Mean","MCP1/CCL2; Donor 1, Conc. 6639 μM",−0.205
same,"MCP1 expression relative to Control, Mean","MCP1/CCL2; Donor 2, Conc. 66 μM",0
same,"MCP1 expression relative to Control, Mean","MCP1/CCL2; Donor 2, Conc. 1328 μM",26.62
same,"MCP1 expression relative to Control, Mean","MCP1/CCL2; Donor 2, Conc. 3320 μM",−5.645
same,"MCP1 expression relative to Control, Mean","MCP1/CCL2; Donor 2, Conc. 6639 μM",18.62
same,MCP1/CCL2 secretion (summary in words),MCP1/CCL2,did not have an effect on MCP1/CCL2 secretion
same,"Fold Change MCP1 Secretion Normalized Per Cell, Mean",MCP-1; Conc. 66 μM,1.0000 Fold Change
same,Fold Change MCP1 Secretion Normalized Per Cell,"MCP-1; Isoleucine 66 μM (plasma level, reference)",1.0000 fold change
same,Fold Change IL-6 Secretion Normalized Per Cell,"IL-6 [1]; donor 1, Isoleucine 66 μM (plasma level, reference)",1.0000 fold change
same,Fold Change IL-6 Secretion Normalized Per Cell,"IL-6 [1]; donor 2, Isoleucine 66 μM (plasma level, reference)",1.0000 fold change
same,IL-6 secretion (summary in words),IL-6 [1],no significant effect on IL-6 secretion
same,"Col1a1 Fold Expression Relative to Control, Mean","Col1a1; first donor, 3320 μM",1.10 fold
same,Col1a1 gene expression (summary in words),Col1a1,did not significantly change Col1a1 gene expression in any donor
same,"Col1a1 Fold Expression Relative to Control, Mean","Col1a1; second donor (Table 27), 66 μM (baseline)",1.00 fold
same,"Col1a1 Fold Expression Relative to Control, Mean","Col1a1; second donor (Table 27), 1328 μM",0.97 fold
same,"Col1a1 Fold Expression Relative to Control, Mean","Col1a1; second donor (Table 27), 3320 μM",0.99 fold
same,"Col1a1 Fold Expression Relative to Control, Mean","Col1a1; second donor (Table 27), 6639 μM",1.03 fold
same,"Col1a1 Fold Expression Relative to Control, Mean","Col1a1; second donor (Table 29), 1328 μM",0.94 fold
same,"Col1a1 Fold Expression Relative to Control, Mean","Col1a1; second donor (Table 29), 3320 μM",0.94 fold
same,"Col1a1 Fold Expression Relative to Control, Mean","Col1a1; second donor (Table 29), 6639 μM",1.03 fold
same,"Procollagen lα1 Secretion (Fold Change of 1X), Mean",Procollagen Iα1; 1328 μM,0.9229 fold
same,"Procollagen lα1 Secretion (Fold Change of 1X), Mean",Procollagen Iα1; 3320 μM,1.1366 fold
same,"Procollagen lα1 Secretion (Fold Change of 1X), Mean",Procollagen Iα1; 6639 μM,1.2144 fold
same,procollagen Iα1 secretion (summary in words),Procollagen Iα1,significantly increased procollagen Iα1 secretion in two of three donors
same,"Procollagen Iα1 Secretion, Mean","Procollagen Iα1; second donor, Conc. 66 μM (baseline)",1.0000 Fold Change of 1×
same,"Procollagen Iα1 Secretion, Mean","Procollagen Iα1; second donor, Conc. 1328 μM",1.4811 Fold Change of 1×
same,"Procollagen Iα1 Secretion, Mean","Procollagen Iα1; second donor, Conc. 3320 μM",1.4940 Fold Change of 1×
same,"Procollagen Iα1 Secretion, Mean","Procollagen Iα1; second donor, Conc. 6639 μM",1.5423 Fold Change of 1×
same,"Procollagen Iα1 Secretion, Mean","Procollagen Iα1; third donor, Conc. 66 μM (baseline)",1.0000 Fold Change of 1×
same,"Procollagen Iα1 Secretion, Mean","Procollagen Iα1; third donor, Conc. 1328 μM",1.2687 Fold Change of 1×
same,"Procollagen Iα1 Secretion, Mean","Procollagen Iα1; third donor, Conc. 3320 μM",1.2703 Fold Change of 1×
same,"Procollagen Iα1 Secretion, Mean","Procollagen Iα1; third donor, Conc. 6639 μM",1.4465 Fold Change of 1×
same,"IL-6 Measurements, Mean",IL-6 [2]; [4],0
same,"IL-6 Measurements, Mean","IL-6 [2]; Donor 2, Conc. 1328 μM",−2.318
same,"IL-6 Measurements, Mean","IL-6 [2]; Donor 2, Conc. 3320 μM",2.305
same,"IL-6 Measurements, Mean","IL-6 [2]; Donor 2, Conc. 6639 μM",−1.774
same,IL-6 Measurements Mean (baseline subtracted),"IL-6 [2]; Donor 3, Conc. 3320 μM, 0.15 ng/mL LPS",0
same,TNF-α Measurements Mean (baseline subtracted),TNF-α; [4],0
same,TNF-α Measurements Mean (baseline subtracted),"TNF-α; Donor 1, Conc. 1328 μM",−42.68
same,TNF-α Measurements Mean (baseline subtracted),"TNF-α; Donor 1, Conc. 3320 μM",−96.3
same,TNF-α Measurements Mean (baseline subtracted),"TNF-α; Donor 1, Conc. 6639 μM",−40.95
same,LPS-induced TNF-α secretion (summary in words),TNF-α; Donor 2,increased TNF-α secretion
same,TNF-α Measurements Mean (baseline subtracted),"TNF-α; Donor 2, Conc. 66 μM (baseline)",4.74E−15
same,TNF-α Measurements Mean (baseline subtracted),"TNF-α; Donor 2, Conc. 1328 μM",2.919
same,TNF-α Measurements Mean (baseline subtracted),"TNF-α; Donor 2, Conc. 3320 μM",10.26
same,TNF-α Measurements Mean (baseline subtracted),"TNF-α; Donor 2, Conc. 6639 μM",19.26
same,TNF-α Measurements Mean (baseline subtracted),"TNF-α; Donor 3, Conc. 66 μM (baseline)",−2.4E−15
same,TNF-α Measurements Mean (baseline subtracted),"TNF-α; Donor 3, Conc. 1328 μM",−6.23
same,TNF-α Measurements Mean (baseline subtracted),"TNF-α; Donor 3, Conc. 3320 μM",3.309
same,TNF-α Measurements Mean (baseline subtracted),"TNF-α; Donor 3, Conc. 6639 μM",−1.66
